As a reminder, the EC50 is the concentration that produces a half-maximal response.

Our source for the sensitivity of proliferation and EC50 values is patent US20110217309A1, “BIOLOGICAL MARKERS PREDICTIVE OF ANTI-CANCER RESPONSE TO INSULIN-LIKE GROWTH FACTOR-1 RECEPTOR KINASE INHIBITORS” (priority 2010, published 2011).

For assay [1], the system named is OVCAR-4, SKOV-3, OVCAR-3, OVCAR-8, CaOV3-5, and IGROV-1. The experiment in a line: Cell Titer Glo proliferation assay, K-RAS wild-type OvCa lines. In kind it is cell-based, human. The settings on record: other six OvCa cell lines of the panel, WT KRAS, 72 hours. The text has this: KRAS mutation status, as reported by the Sanger Wellcome Trust, is noted. Results shown are typical of three or more independent experiments. Grey symbols indicate data for K-RAS mutant (mt) cell lines OVCAR-5 and MDAH2774. Black symbols indicate data for K-RAS wild-type (wt) cell lines OVCAR-4, SKOV-3, OVCAR-3, OVCAR-8, CaOV3-5, and IGROV-1. Cell Lines and Culture. Human cancer cell lines, were obtained from American Type Culture Collection (ATCC, Manassas, Va.), or the following additional indicated sources, and cultured in media as described. […] The basis of the assay is a luminescent quantitation of ATP present in a cell culture plate well. […] The assay utilizes a substrate that binds ATP to produce a luminescent signal, which can be read on a luminometer. […] Results were calculated as a fraction of the DMSO controlled cells.
(In ATP-based viability assays light output follows the ATP content of the culture.)

The test system of another assay is H295R. The experiment in a line: Cell Titer Glo proliferation assay. The assay is classed as cell-based. The settings on record: Homo sapiens, NCI-H295R; read-out: EC50 in culture in vitro. The source says: (§1) Cell Lines and Culture. Human cancer cell lines, were obtained from American Type Culture Collection (ATCC, Manassas, Va.), or the following additional indicated sources, and cultured in media as described. Tumor types are also indicated: H295R (adrenocortical carcinoma; ATCC), NCI-[…], NCI-[…], SW1573 (NSCLC; ATCC), […], BxPC3 (pancreatic; ATCC), OVCAR5 (ovarian; NCI), MDAH-2774 (ovarian; ATCC), Igrov1 (ovarian; NCI), GEO (colon; Roswell Park Cancer Institute (RPCC)), HT-29 (colon; ATCC), RKO (colon; ATCC), […], 8226 (myeloma; ATCC), H929 (myeloma; ATCC), U266 (myeloma; ATCC), SKES1 (Ewings sarcoma; ATCC), RDES (Ewings sarcoma; ATCC), RD (rhabdomyosarcoma; ATCC), DU4475 (breast; ATCC), SKNAS (neuroblastoma; ATCC), 2650 (nasal SCC; ATCC), OVCAR4 (ovarian; NCI), A673 (Ewings sarcoma; ATCC), BT474 (breast; ATCC), 1386 (oral SCC; MSKCC, NY), 1186 (SCCHN; MSKCC, NY), Colo205 (colon; ATCC), HCT-15 (colon; ATCC), Fadu (oral SCC; ATCC), SKBR3 (breast; ATCC), 1483 (HNSCC; MSKCC, NY), HSC-2 (HNSCC; RIKEN BioResource Center, Tsukuba, Ibaraki, 305-0074, Japan), SKOV-3 (ovarian; ATCC), OVCAR-3 (ovarian; NCI), OVCAR-8 (ovarian; NCI), CaOV3 (ovarian; ATCC). […] The cells were routinely screened for the presence of mycoplasma (MycoAlert, Cambrex Bio Science, Baltimore, Md.). For growth inhibition assays, cells were plated and allowed to proliferate for 24 hours. […] Cell viability was assayed using the Cell Titer-Glo reagent (Promega Corp., Madison, Wis.). Proliferation Assay. […] The basis of the assay is a luminescent quantitation of ATP present in a cell culture plate well. In essence, the greater the number of viable cells in the well, the greater the level of ATP present. The assay utilizes a substrate that binds ATP to produce a luminescent signal, which can be read on a luminometer. Unless otherwise noted, the manufacturer's instructions were followed exactly. Briefly, on Day 1, cells were plated in 120 μl of 10% serum-containing growth media at a density of 4000 cells/well in a white polystyrene 96 well assay plate. […] After 72 h incubation with the inhibitor, the cells were assayed. Results were calculated as a fraction of the DMSO controlled cells.

A further assay deals with FaDu. As to the kind of experiment: Cell Titer Glo proliferation assay. The following applies: Homo sapiens, read-out: EC50 in culture in vitro. In kind it is cell-based.
Excerpt: as §1

For a further assay, the system named is SKNAS. As to the kind of experiment: Cell Titer Glo proliferation assay. The assay is classed as cell-based. The settings on record: Homo sapiens, SK-N-AS, read-out: EC50 in culture in vitro.
Excerpt: as §1

The next assay deals with H460. The experiment in a line: Cell Titer Glo proliferation assay. The following applies: Homo sapiens, NCI-H460; read-out: EC50 in culture in vitro. The assay is classed as cell-based.
Excerpt: as §1

The subject of another assay is BxPC3. The experiment in a line: Cell Titer Glo proliferation assay. In kind it is cell-based. The following applies: Homo sapiens, BXPC-3, read-out: EC50 in culture in vitro.
Excerpt: as §1

A further assay relates to Colo205. As to the kind of experiment: Cell Titer Glo proliferation assay. The following applies: Homo sapiens, COLO 205, read-out: EC50 in culture in vitro. In kind it is cell-based.
Excerpt: as §1

As for `C[C@]1(O)C[C@@H](c2nc(-c3ccc4ccc(-c5ccccc5)nc4c3)c3c(N)nccn32)C1` [OSI-906, cis-3-[8-amino-1-(2-phenyl-quinolin-7-yl)-imidazo[1,5-a]pyrazin-3-yl]-1-methyl-cyclobutanol], in assay [1], the sensitivity of proliferation result is listed as “relatively insensitive”. Besides, the EC50 is less than 1000 nM with H295R; more than 10000 nM in the assay with FaDu; less than 1000 nM with SKNAS; more than 10000 nM in the assay with H460; less than 1000 nM in the assay with BxPC3; less than 1000 nM in the assay on Colo205.
